# Assay results reported in US6630449B2, “Method for reducing the effect of nicotine addiction and dependancy” (priority 2000, dated 2003).
# Like-named read-outs stand apart in the source and are kept apart here.
# Columns and labels:
# [1] = system: smokers (craving for nicotine); conditions: cited from earlier work; for time after first administration at which the effect starts to wear off / duration of nicotine craving relief: after injection
# [2] = system: smoker (craving for nicotine); test: Treatment of smokers with corticotrophin injection to reduce craving for nicotine (case examples); assay type: in vivo, human
# Text: Referring to the FIG. a suitable and preferred process for the treatment of smokers includes nutritional and relaxant supplements, corticotrophin administration, and counseling. On day one, the smoker comes into a clinic for orientation 10. At the time of the first office visit, a medical history is taken and a physical given 12 is taken by the physician, and a determination is made as to whether a given smoker is a satisfactory candidate for treatment 14. […] If the smoker is allowed to participate in the program, the physician will write a prescription of r the needed medications. Then, immediately before the smoker leaves the clinic, a pharmacist fills their prescription for and dispenses to the smoker their supply of nutrition supplements and mild relaxants 16. The next day, day two, the smoker has the first BMS 18. Then on day three the smoker comes back to the clinic and receives the first injection of corticotrophins 20 from the physician. This is the time and place the smoker gives up smoking 22. On day five the smoker participates in a second BMS 24. On day seven, the smoker returns to receive the second injection of corticotrophins 26 from the physician. On day fourteen the smoker, now presumably a former smoker, returns for the last BMS 28. […]
substance,measurement,setting,value
Adrenocorticotrophin hormone,time after first administration at which the effect starts to wear off / duration of nicotine craving relief,[1]; listed as Corticotrophins,fifty and one hundred
same,time after first administration at which the effect starts to wear off / duration of nicotine craving relief,[1]; listed as corticotrophins,About seventy two
same,effect on craving for nicotine,[1]; given to smokers intramuscularly,dramatically reduce the craving for nicotine
same,patients who start smoking again,"[1]; one administration (Bourne treatment), after about thirty days",thirty to sixty
same,duration of reduced cravings for nicotine after one administration,[1]; one administration (Bourne treatment),thirty
same,smoking cessation outcome,"[2]; about 250 pounds, three packs a day, one injection of 160 units with counseling and nutritional supplements, no second injection",ceased smoking permanently
same,smoking cessation outcome,"[2]; comparative example, about 170 pounds, over one pack a day, one injection of 160 units, no appropriate counseling",resumed smoking
